Common to all, as to design: scale not given: the % may be the effect or the level left
The target of assay [1] is Protein kinase C theta type (Homo sapiens) (UniProt Q04759). The assay is described as follows: Inhibition of human PKCtheta assessed as enzyme activity at 1 uM using ERMRPRKRQGSVRRRV as substrate preincubated for 20 mins followed by [gamma-33P]-ATP addition and measured after 120 mins by radiometric Hot-SpotSM Kinase assay relative to control.
Assay [2] concerns the target T1, MAP/microtubule affinity-regulating kinase 4 (Homo sapiens) (UniProt Q96L34).
T1 sequence (whole entry): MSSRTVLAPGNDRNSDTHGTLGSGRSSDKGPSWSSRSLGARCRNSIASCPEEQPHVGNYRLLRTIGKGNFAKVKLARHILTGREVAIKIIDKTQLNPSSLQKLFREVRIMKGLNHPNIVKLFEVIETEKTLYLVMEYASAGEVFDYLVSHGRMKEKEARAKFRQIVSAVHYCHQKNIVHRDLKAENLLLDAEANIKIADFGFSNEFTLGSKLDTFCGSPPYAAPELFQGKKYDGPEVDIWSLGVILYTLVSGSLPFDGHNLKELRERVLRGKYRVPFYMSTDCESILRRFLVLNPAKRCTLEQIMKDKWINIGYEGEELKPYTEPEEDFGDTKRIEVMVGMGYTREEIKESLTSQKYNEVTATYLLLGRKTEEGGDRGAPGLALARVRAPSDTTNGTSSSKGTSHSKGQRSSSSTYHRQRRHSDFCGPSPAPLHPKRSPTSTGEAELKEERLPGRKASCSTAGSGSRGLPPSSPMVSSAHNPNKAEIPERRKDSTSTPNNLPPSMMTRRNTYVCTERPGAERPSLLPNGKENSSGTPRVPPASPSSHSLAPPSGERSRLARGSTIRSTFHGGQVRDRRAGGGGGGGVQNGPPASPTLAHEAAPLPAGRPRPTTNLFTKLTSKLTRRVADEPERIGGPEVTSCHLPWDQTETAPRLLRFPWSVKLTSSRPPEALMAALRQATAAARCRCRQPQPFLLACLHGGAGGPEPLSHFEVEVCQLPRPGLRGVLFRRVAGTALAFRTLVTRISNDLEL
Description: Inhibition of human MARK4 assessed as enzyme activity at 1 uM using KKKVSRSGLYRSPSMPENLNRPR as substrate preincubated for 20 mins followed by [gamma-33P]-ATP addition and measured after 120 mins by radiometric Hot-SpotSM Kinase assay relative to control.

In assay [3] the target is T2, Ephrin type-A receptor 3 (Homo sapiens) (UniProt P29320).
T2 sequence (whole entry): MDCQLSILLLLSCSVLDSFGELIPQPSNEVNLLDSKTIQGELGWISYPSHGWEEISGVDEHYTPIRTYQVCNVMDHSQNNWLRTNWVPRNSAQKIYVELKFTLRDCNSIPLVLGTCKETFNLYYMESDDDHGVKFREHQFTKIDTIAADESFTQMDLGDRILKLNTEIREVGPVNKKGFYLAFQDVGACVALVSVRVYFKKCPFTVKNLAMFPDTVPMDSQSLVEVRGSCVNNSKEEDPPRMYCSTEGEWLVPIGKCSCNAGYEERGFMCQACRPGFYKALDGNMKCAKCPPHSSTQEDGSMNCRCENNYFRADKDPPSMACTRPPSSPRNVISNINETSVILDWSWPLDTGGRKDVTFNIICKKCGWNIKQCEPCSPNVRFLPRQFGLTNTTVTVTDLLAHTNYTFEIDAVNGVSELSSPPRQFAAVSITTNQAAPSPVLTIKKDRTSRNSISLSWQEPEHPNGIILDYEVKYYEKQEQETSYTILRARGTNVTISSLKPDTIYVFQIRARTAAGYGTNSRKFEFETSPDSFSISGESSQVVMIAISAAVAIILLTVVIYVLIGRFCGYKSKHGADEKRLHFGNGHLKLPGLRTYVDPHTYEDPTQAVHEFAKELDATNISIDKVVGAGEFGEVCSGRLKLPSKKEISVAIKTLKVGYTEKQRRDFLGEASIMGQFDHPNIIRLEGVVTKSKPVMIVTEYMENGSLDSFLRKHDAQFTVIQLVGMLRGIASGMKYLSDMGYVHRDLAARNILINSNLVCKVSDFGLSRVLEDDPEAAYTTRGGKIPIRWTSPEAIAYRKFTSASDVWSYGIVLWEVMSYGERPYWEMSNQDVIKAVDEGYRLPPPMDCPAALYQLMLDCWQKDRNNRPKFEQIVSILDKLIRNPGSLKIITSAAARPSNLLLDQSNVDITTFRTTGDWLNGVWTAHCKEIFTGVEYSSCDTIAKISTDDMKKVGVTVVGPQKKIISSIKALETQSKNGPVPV
Description: Inhibition of human EPHA3 assessed as enzyme activity at 1 uM using poly[Glu:Tyr] (4:1) as substrate preincubated for 20 mins followed by [gamma-33P]-ATP addition and measured after 120 mins by radiometric Hot-SpotSM Kinase assay relative to control.

The target of assay [4] is Mitogen-activated protein kinase 8 (Homo sapiens) (UniProt P45983). Description: Inhibition of human JNK1-alpha1 assessed as enzyme activity at 1 uM using ATF2 as substrate preincubated for 20 mins followed by [gamma-33P]-ATP addition and measured after 120 mins by radiometric Hot-SpotSM Kinase assay relative to control.
Sequence of Mitogen-activated protein kinase 8 (Homo sapiens) (P45983 whole entry): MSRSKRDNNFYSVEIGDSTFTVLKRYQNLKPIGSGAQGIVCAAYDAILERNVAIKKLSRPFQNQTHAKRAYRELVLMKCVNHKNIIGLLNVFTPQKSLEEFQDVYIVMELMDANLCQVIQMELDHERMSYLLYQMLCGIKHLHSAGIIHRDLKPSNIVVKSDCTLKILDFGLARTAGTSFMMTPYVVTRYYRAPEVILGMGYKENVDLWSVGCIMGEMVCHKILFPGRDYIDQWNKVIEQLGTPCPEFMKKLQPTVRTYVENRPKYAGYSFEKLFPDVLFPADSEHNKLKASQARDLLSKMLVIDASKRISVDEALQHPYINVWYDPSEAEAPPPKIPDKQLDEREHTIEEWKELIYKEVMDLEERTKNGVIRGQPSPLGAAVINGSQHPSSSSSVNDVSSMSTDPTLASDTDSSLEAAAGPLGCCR
For assay [5], the target named is CDK1/Cyclin E (Homo sapiens) (UniProt P06493+P24864). The assay is described as follows: Inhibition of human CDK1/cyclin E assessed as enzyme activity at 1 uM using RB Protein as substrate preincubated for 20 mins followed by [gamma-33P]-ATP addition and measured after 120 mins by radiometric Hot-SpotSM Kinase assay relative to control. It counts as protein-complex assay.
Sequence of CDK1/Cyclin E (Homo sapiens) (P06493 whole entry, looked up): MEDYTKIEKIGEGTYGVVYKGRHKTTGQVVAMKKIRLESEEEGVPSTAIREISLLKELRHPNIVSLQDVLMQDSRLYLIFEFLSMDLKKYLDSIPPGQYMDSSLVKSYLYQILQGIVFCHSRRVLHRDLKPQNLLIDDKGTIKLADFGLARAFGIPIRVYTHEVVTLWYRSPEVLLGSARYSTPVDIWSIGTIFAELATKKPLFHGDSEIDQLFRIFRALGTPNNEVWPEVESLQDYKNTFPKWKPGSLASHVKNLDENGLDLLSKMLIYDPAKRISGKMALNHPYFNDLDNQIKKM
Sequence of CDK1/Cyclin E (Homo sapiens) (P24864 whole entry, looked up): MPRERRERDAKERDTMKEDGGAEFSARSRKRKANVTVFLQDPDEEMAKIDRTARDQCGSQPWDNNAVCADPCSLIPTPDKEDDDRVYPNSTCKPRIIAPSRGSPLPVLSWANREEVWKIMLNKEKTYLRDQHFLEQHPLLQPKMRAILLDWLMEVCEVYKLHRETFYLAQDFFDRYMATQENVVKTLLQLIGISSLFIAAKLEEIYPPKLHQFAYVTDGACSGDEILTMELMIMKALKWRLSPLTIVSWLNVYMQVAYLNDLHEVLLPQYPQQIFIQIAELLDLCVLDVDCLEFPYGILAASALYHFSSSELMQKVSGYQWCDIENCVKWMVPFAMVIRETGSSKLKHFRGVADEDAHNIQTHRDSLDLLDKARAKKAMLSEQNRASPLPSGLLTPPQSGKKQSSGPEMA

The species named for assay [6] is Homo sapiens. The assay is described as follows: Inhibition of human CDK2/cyclin A assessed as enzyme activity at 1 uM using RB Protein as substrate preincubated for 20 mins followed by [gamma-33P]-ATP addition and measured after 120 mins by radiometric Hot-SpotSM Kinase assay relative to control.
Assay [7] addresses Serine/threonine-protein kinase PAK 2 (Homo sapiens) (UniProt Q13177). Description: Inhibition of human PAK2 assessed as enzyme activity at 1 uM using RRRLSFAEPG as substrate preincubated for 20 mins followed by [gamma-33P]-ATP addition and measured after 120 mins by radiometric Hot-SpotSM Kinase assay relative to control.
In assay [8] the target is T3, Mitogen-activated protein kinase 12 (Homo sapiens) (UniProt P53778).
T3 sequence (whole entry): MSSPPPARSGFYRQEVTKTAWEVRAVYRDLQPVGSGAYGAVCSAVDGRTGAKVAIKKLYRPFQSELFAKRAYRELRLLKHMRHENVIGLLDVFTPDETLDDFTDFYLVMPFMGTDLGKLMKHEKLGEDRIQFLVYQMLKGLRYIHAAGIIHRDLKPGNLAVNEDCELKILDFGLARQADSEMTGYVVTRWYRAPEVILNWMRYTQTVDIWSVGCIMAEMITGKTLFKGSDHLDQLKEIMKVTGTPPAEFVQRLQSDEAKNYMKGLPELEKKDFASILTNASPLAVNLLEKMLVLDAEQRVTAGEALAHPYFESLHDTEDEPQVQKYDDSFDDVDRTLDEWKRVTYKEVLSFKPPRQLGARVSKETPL
Description: Inhibition of human P38g assessed as enzyme activity at 1 uM using myelin basic protein as substrate preincubated for 20 mins followed by [gamma-33P]-ATP addition and measured after 120 mins by radiometric Hot-SpotSM Kinase assay relative to control.

Structures are written as SMILES.

Sequence of Protein kinase C theta type (Homo sapiens) (Q04759 whole entry, looked up): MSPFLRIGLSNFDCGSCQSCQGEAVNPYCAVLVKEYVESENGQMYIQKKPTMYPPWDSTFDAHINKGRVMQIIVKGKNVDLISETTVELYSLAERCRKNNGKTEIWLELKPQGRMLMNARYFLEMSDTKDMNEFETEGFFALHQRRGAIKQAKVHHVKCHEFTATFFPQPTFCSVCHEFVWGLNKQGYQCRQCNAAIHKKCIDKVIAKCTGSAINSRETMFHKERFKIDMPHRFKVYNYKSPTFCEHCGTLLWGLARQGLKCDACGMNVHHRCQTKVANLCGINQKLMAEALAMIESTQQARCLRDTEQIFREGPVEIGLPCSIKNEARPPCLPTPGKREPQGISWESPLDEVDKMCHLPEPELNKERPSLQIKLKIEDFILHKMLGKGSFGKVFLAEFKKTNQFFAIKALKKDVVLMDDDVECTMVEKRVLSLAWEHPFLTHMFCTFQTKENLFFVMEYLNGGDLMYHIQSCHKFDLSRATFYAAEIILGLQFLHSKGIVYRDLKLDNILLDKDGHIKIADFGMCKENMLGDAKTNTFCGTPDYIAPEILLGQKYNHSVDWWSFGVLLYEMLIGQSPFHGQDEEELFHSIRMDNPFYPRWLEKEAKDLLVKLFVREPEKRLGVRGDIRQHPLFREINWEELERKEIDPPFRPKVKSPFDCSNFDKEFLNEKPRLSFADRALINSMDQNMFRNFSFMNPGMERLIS
Sequence of Serine/threonine-protein kinase PAK 2 (Homo sapiens) (Q13177 whole entry): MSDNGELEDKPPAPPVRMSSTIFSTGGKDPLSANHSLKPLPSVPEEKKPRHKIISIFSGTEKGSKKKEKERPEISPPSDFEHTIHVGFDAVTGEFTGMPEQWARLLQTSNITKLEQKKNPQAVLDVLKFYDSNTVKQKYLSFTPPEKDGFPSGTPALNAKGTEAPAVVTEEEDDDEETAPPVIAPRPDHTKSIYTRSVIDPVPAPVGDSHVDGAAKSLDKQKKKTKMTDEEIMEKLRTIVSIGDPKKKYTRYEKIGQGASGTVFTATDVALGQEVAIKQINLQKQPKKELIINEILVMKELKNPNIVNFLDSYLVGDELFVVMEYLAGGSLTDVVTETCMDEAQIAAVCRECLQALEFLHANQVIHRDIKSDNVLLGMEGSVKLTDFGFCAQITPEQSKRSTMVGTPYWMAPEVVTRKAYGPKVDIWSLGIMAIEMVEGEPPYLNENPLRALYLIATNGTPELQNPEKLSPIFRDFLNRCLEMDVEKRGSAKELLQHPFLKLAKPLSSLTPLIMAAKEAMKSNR

As for `C[C@H](Nc1ncnc2nc[nH]c12)c1cc2cccc(Cl)c2c(=O)n1-c1ccccc1`, the Activity is 112% in assay [1]; 109% in assay [2]; 93.9% in assay [3]; 101% in assay [4]; 91.5% in assay [5]; 101% in assay [6]. In addition, the Activity in assay [7] was found to be 100%; in assay [8], 98.2%.
As to `CC[C@H](Nc1ncnc2[nH]cnc12)c1nc2cccc(F)c2c(=O)n1-c1ccccc1`, the Activity in assay [1] stood at 109%; in assay [2], 97%; in assay [3] it was 93.4%; in assay [4], 97.3%; in assay [5], 88.5%; in assay [6], 100%. Also, the Activity was 103% in assay [7] and 96.8% in assay [8].
As to `CC(C)Oc1ccc(-c2nn([C@@H](C)c3oc4ccc(F)cc4c(=O)c3-c3cccc(F)c3)c3ncnc(N)c23)cc1F` [UMBRALISIB], the Activity in assay [1] was determined as 106%; in assay [2], 112%; in assay [3], 92.9%; in assay [4], 98.7%; in assay [5], 86%; in assay [6], 104%. Moreover, the Activity was 96.8% in assay [7] and 96.4% in assay [8].

For the origin of these results see ChEMBL document CHEMBL5715954, “Silencing c-Myc translation as a therapeutic strategy through targeting PI3Kδ and CK1ε in hematological malignancies” (Blood, 2017).
